Data on 20 molecules can be found in patent US20240043435A1, “TYK-2 INHIBITOR” (BEIGENE, LTD., priority 2020, published 2024).

In experiment [1] the test system is pSTAT5/GM-CSF. Kind of experiment: pSTAT5/GM-CSF cellular assay (JAK2 selectivity). The format is cell-based.
Experiment [2] relates to JAK2, TYK2/p-STAT4 (Tyr693) activated by IL-12 in NK-92 cell line. Kind of experiment: IL-12-JAK2, TYK2/p-STAT4 (Tyr693) inhibition IC50 cellular assay. In kind it is cell-based. The settings on record: for IC50: NK92, Cellular assay, read-out: pSTAT4/IL-12 IC50; for Selectivity fold (TYK2/JAK2): Cellular assay, pSTAT5/GM-CSF IC50 vs pSTAT4/IL-12 IC50. Put shortly:
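p-STAT4 (Tyr693) in lysates was measured by AlphaLISA SureFire Ultra after a 30 min IL-12 challenge (40 ng/ml final) at 37° C. Overnight-starved, IL-2-free NK-92 cells had been pretreated 1 h with compound at 10000 to 0.61 nM (4-fold, 8 points). IC50 values came from four-parameter logistic fitting.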

Experiment [3] has as its target T1, TYK2-JH2 (aa 575-869, in-house) protein (Homo sapiens, UniProt P29597).
T1 construct: TYK2-JH2 (aa 575-869, in-house) protein; made in house
Kind of experiment: TYK2-JH2 biochemical assay (HTRF probe displacement). The format is binding. The settings on record: Biochemical assay; read-out: TYK2-JH2 IC50. Put shortly:
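HTRF probe-displacement format: compound dilutions (10 points, 5-fold, from 500 uM in DMSO at 500×) were combined with 0.2 nM TYK2-JH2 protein for 0.5 h at room temperature in HEPES pH 7.5 buffer with MgCl2, BSA, DTT and Brij-35. Percent inhibition came from the 615/665 nm fluorescence ratio, fitted to a four-parameter logistic for IC50.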
On the technique in general: In TR-FRET formats the signal depends on donor and acceptor labels being close together.

[4] abbreviates: pSTAT5/GM-CSF IC50 over pSTAT4/IL-12 IC50.

T1 sequence (P29597 575-869): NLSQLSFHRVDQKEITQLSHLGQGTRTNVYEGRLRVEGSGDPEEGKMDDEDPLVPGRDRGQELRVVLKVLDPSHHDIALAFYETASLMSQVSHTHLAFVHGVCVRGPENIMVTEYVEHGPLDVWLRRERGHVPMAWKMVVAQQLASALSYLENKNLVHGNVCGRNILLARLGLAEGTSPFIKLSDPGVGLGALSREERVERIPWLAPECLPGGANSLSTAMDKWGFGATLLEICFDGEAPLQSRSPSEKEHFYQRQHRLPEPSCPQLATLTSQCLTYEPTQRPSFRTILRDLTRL

For `CC(=O)Nc1cc(Nc2cc(OCC3COC3)cc(S(C)(=O)=O)n2)c(-c2ccn(C)n2)cn1` [Example J25, N-(5-(1-methyl-1H-pyrazol-3-yl)-4-((6-(methylsulfonyl)-4-(oxetan-3-ylmethoxy)pyridin-2-yl)amino)pyridin-2-yl)acetamide], the IC50 is more than 10000 nM in experiment [1], 2.91 nM in experiment [2] and 0.025 nM in experiment [3]. Further, the “Selectivity fold (TYK2/JAK2)” value in experiment [1] (setting [4]) is recorded as more than 3436 fold.

`CC(=O)Nc1cc(Nc2cc(C3COCCO3)cc(S(C)(=O)=O)n2)c(-c2ccc3c(n2)OCC(C)(C)O3)cn1` (racemic) [Example Q50, (R/S)—N-(4-((4-(1,4-dioxan-2-yl)-6-(methylsulfonyl)pyridin-2-yl)amino)-5-(2,2-dimethyl-2,3-dihydro-[1,4]dioxino[2,3-b]pyridin-6-yl)pyridin-2-yl)acetamide]: the IC50 in experiment [1] amounted to 2020 nM; in experiment [2] it was 0.626 nM; in experiment [3] it was 0.019 nM. In addition, in experiment [1] (setting [4]), the “Selectivity fold (TYK2/JAK2)” value was 3231 fold.

For `CC(=O)Nc1cc(Nc2cc(OCCO)cc(S(C)(=O)=O)n2)c(-c2ccc(N3CCOCC3=O)cn2)cn1` [Example G3, N-(4′-((4-(2-hydroxyethoxy)-6-(methylsulfonyl)pyridin-2-yl)amino)-5-(3-oxomorpholino)-[2,3′-bipyridin]-6′-yl)acetamide], the IC50 in experiment [1] is more than 10000 nM; in experiment [2] it was 224 nM; in experiment [3], 0.05 nM. Also, in experiment [1] (pSTAT5/GM-CSF vs pSTAT4/IL-12), the “Selectivity fold (TYK2/JAK2)” value is on record as more than 44 fold.

For the molecule `CC(=O)Nc1cc(Nc2cc(C)cc(S(C)(=O)=O)n2)c(-c2ccc3c(n2)OCC(C)(C)O3)cn1` [Example Q21, N-(5-(2,2-dimethyl-2,3-dihydro-[1,4]dioxino[2,3-b]pyridin-6-yl)-4-((4-methyl-6-(methylsulfonyl)pyridin-2-yl)amino)pyridin-2-yl)acetamide], the IC50 in experiment [1] amounted to 1570 nM; in experiment [2], 0.411 nM; in experiment [3] it was 0.037 nM. Moreover, the “Selectivity fold (TYK2/JAK2)” value in experiment [1] (setting [4]) stood at 3824 fold.

With `CC(=O)Nc1cc(Nc2cc(OCCO)cc(S(C)(=O)=O)c2)c(-c2ccn(C)n2)cn1` [Example J56, N-(4-((3-(2-hydroxyethoxy)-5-(methylsulfonyl)phenyl)amino)-5-(1-methyl-1H-pyrazol-3-yl)pyridin-2-yl)acetamide], the IC50 is more than 10000 nM in experiment [1], 30.1 nM in experiment [2] and 0.044 nM in experiment [3]. Further, the “Selectivity fold (TYK2/JAK2)” value in experiment [1] (setting [4]) is recorded as more than 332 fold.

For the molecule `COCc1ccc(-c2cnc(NC(C)=O)cc2Nc2cc(OC)cc(S(C)(=O)=O)n2)nc1` [Example E7, N-(4′-((4-methoxy-6-(methylsulfonyl)pyridin-2-yl)amino)-5-(methoxymethyl)-[2,3′-bipyridin]-6′-yl)acetamide], the IC50 was more than 10000 nM in experiment [1], 0.447 nM in experiment [2] and 0.02 nM in experiment [3]. Also, in experiment [2], the “Selectivity fold (TYK2/JAK2)” value is listed as more than 22371 fold.

`COCCOc1cc(Nc2cc(NC(C)=O)ncc2-c2ccc(C(C)(C)O)cn2)nc(S(C)(=O)=O)c1` [Example H6, N-(5-(2-hydroxypropan-2-yl)-4′-((4-(2-methoxyethoxy)-6-(methylsulfonyl)pyridin-2-yl)amino)-[2,3′-bipyridin]-6′-yl)acetamide]: the IC50 was found to be 8870 nM in experiment [1], 1.25 nM in experiment [2] and 0.014 nM in experiment [3]. Also, the “Selectivity fold (TYK2/JAK2)” value in experiment [2] was 7097 fold.

With `CC(=O)Nc1cc(Nc2cccc(S(C)(=O)=O)c2)c(-c2ccc(N3C[C@@H](C)O[C@@H](C)C3)cn2)cn1` [Example C3, N-(5-((cis)-2,6-dimethylmorpholino)-4′-((3-(methylsulfonyl)phenyl)amino)-[2,3′-bipyridin]-6′-yl)acetamide], the IC50 in experiment [1] was more than 10000 nM; in experiment [2] it was 5.81 nM; in experiment [3], 0.032 nM. For the same molecule, in experiment [2], the “Selectivity fold (TYK2/JAK2)” value is given as more than 1721 fold.

`CC(=O)Nc1cc(Nc2cncc(S(C)(=O)=O)n2)c(-c2ccc3c(n2)OC(C)(C)CO3)cn1` [Example Q28, N-(5-(3,3-dimethyl-2,3-dihydro-[1,4]dioxino[2,3-b]pyridine-6-yl)-4-((6-(methylsulfonyl)pyrazin-2-yl)amino)pyridine-2-yl)acetamide]: the IC50 in experiment [1] is more than 10000 nM; in experiment [2] it was 0.329 nM; in experiment [3], 0.026 nM. The “Selectivity fold (TYK2/JAK2)” value in experiment [1] (setting [4]) is more than 30395 fold.

Turning to `CC(=O)Nc1cc(Nc2cc(OC3COC3)cc(S(C)(=O)=O)n2)c(-c2ccn(C)n2)cn1` [Example J22, N-(5-(1-methyl-1H-pyrazol-3-yl)-4-((6-(methylsulfonyl)-4-(oxetan-3-yloxy)pyridin-2-yl)amino)pyridin-2-yl)acetamide], the IC50 in experiment [1] is more than 10000 nM; in experiment [2], 1.93 nM; in experiment [3] it was 0.037 nM. Moreover, the “Selectivity fold (TYK2/JAK2)” value in experiment [1] (setting [4]) was more than 5181 fold.

With `CC(=O)Nc1cc(Nc2cccc(S(C)(=O)=O)c2)c(-c2ccc(C(F)(F)F)cn2)cn1` [Example F2, N-(4′-((3-(methylsulfonyl)phenyl)amino)-5-(trifluoromethyl)-[2,3′-bipyridin]-6′-yl)acetamide], the IC50 was more than 10000 nM in experiment [1], 22.1 nM in experiment [2] and 0.051 nM in experiment [3]. Further, the “Selectivity fold (TYK2/JAK2)” value in experiment [2] is given as more than 451 fold.

Take `CC(=O)Nc1cc(Nc2cc(O[C@H]3C[C@H](O)C3)cc(S(C)(=O)=O)n2)c(-c2ccc(C(C)(C)O)cn2)cn1` [Example H10]: the values for the IC50 in experiment [1], in experiment [2] and in experiment [3] were more than 10000 nM, 16.4 nM and 0.017 nM, respectively. Also, the “Selectivity fold (TYK2/JAK2)” value in experiment [2] is listed as more than 607 fold.

`CC(=O)Nc1cc(Nc2cc(OC(C)C)cc(S(C)(=O)=O)n2)c(-c2ccn([C@@H]3CCOC3)n2)cn1` [Example M34, (R)-N-(4-((4-isopropoxy-6-(methylsulfonyl)pyridin-2-yl)amino)-5-(1-(tetrahydrofuran-3-yl)-1H-pyrazol-3-yl)pyridin-2-yl)acetamide]: the IC50 in experiment [1] was more than 10000 nM; in experiment [2], 0.402 nM; in experiment [3] it was 0.024 nM. Further, in experiment [1] (setting [4]), the “Selectivity fold (TYK2/JAK2)” value is more than 24875 fold.

On to `CCOc1cc(Nc2cc(NC(C)=O)ncc2-c2ccn(C)n2)nc(S(C)(=O)=O)c1` [Example J43, N-(4-((4-ethoxy-6-(methylsulfonyl)pyridin-2-yl)amino)-5-(1-methyl-1H-pyrazol-3-yl)pyridin-2-yl)acetamide], for which the IC50 was more than 10000 nM in experiment [1], 0.744 nM in experiment [2] and 0.025 nM in experiment [3]. For the same molecule, the “Selectivity fold (TYK2/JAK2)” value in experiment [1] (setting [4]) is listed as more than 13440 fold.

On to `CC(=O)Nc1cc(Nc2cc(OC(C)C)cc(S(C)(=O)=O)n2)c(-c2ccc(C#N)cn2)cn1` [Example A17, N-(5-cyano-4′-((4-isopropoxy-6-(methylsulfonyl)pyridin-2-yl)amino)-[2,3′-bipyridin]-6′-yl)acetamide], for which the results for the IC50 in experiment [1], in experiment [2] and in experiment [3] were more than 10000 nM, 1.64 nM and 0.028 nM, respectively. Further, in experiment [2], the “Selectivity fold (TYK2/JAK2)” value is more than 6097 fold.

As for `COCCOc1ccc(-c2cnc(NC(C)=O)cc2Nc2cc(OCC3CC3)cc(S(C)(=O)=O)c2)nc1` [Example D10, N-(4′-((3-(cyclopropylmethoxy)-5-(methylsulfonyl)phenyl)amino)-5-(2-methoxyethoxy)-[2,3′-bipyridin]-6′-yl)acetamide], the IC50 in experiment [1] is more than 10000 nM; in experiment [2] it was 12.7 nM; in experiment [3] it was 0.052 nM. Also, in experiment [2], the “Selectivity fold (TYK2/JAK2)” value was more than 789 fold.

Regarding `CO[C@H]1C[C@H](c2cc(Nc3cc(NC(C)=O)ncc3-c3ccc4c(n3)OCC(C)(C)O4)nc(S(C)(=O)=O)c2)C1` [Example Q54], the IC50 was 3980 nM in experiment [1], 0.56 nM in experiment [2] and 0.037 nM in experiment [3]. In addition, in experiment [1] (setting [4]), the “Selectivity fold (TYK2/JAK2)” value is 7116 fold.

On to `CC(=O)Nc1cc(Nc2cc(C#N)cc(S(C)(=O)=O)n2)c(-c2ccn(C)n2)cn1` [Example J26, N-(4-((4-cyano-6-(methylsulfonyl)pyridin-2-yl)amino)-5-(1-methyl-1H-pyrazol-3-yl)pyridin-2-yl)acetamide], for which the IC50 in experiment [1] is more than 10000 nM; in experiment [2], 5.5 nM; in experiment [3], 0.023 nM. The “Selectivity fold (TYK2/JAK2)” value in experiment [1] (setting [4]) was more than 1818 fold.

On to `CC(=O)Nc1cc(Nc2cccc(S(C)(=O)=O)n2)c(C2=NC(C)(C)CS2)cn1` [Example R1, N-(5-(4,4-dimethyl-4,5-dihydrothiazol-2-yl)-4-((6-(methylsulfonyl)pyridin-2-yl)amino)pyridin-2-yl)acetamide], for which the IC50 in experiment [1] was more than 10000 nM; in experiment [2], 2.18 nM; in experiment [3] it was 0.041 nM. Besides, the “Selectivity fold (TYK2/JAK2)” value in experiment [1] (setting [4]) is given as more than 4587 fold.

With `COCc1ccc(-c2cnc(NC(C)=O)cc2Nc2cc(COC)cc(S(C)(=O)=O)n2)nc1` [Example E9, N-(5-(methoxymethyl)-4′-((4-(methoxymethyl)-6-(methylsulfonyl)pyridin-2-yl)amino)-[2,3′-bipyridin]-6′-yl)acetamide], the IC50 in experiment [1] is more than 10000 nM; in experiment [2], 0.504 nM; in experiment [3] it was 0.022 nM. In experiment [2], the “Selectivity fold (TYK2/JAK2)” value is reported as more than 19960 fold.
